Key:
Test in all cases: relative viability (nuclei count vs DMSO), 5 days (fraction); higher = more cells survive
QS11 + Pictilisib = compound: C1CC2=C(C1)C=C(C=C2)OC3=NC(=C4C(=N3)N(C=N4)CC5=CC=C(C=C5)C6=CC=CC=C6)N[C@@H](CC7=CC=CC=C7)CO [QS11] + CS(=O)(=O)N1CCN(Cc2cc3nc(-c4cccc5[nH]ncc45)nc(N4CCOCC4)c3s2)CC1 [Pictilisib] (partner 1 µM)
Outline: (§1)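 Lung cancer cell lines were seeded in 1536-well plates and dosed by pin tool the next day, with either a single drug or a fixed anchor-drug dose combined with five library-drug doses (not always all listed) spaced in √10 steps. Five days later, one step fixed the cells and stained their nuclei (final 0.05% Triton X-100, 1% formaldehyde, 1 ug/ml Hoechst), and nuclei were counted on 4× images. Relative viability is the nuclei count in treated wells divided by the count in vehicle wells, and each value is the median of duplicate plates.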

AZ628 + Alpelisib = compound: CC1=C(C=C(C=C1)NC(=O)C2=CC(=CC=C2)C(C)(C)C#N)NC3=CC4=C(C=C3)N=CN(C4=O)C [AZ628] + Cc1nc(NC(=O)N2CCC[C@H]2C(N)=O)sc1-c1ccnc(C(C)(C)C(F)(F)F)c1 [Alpelisib] (partner 2 µM)
Outline: as §1

QS11 + Trametinib = compound: C1CC2=C(C1)C=C(C=C2)OC3=NC(=C4C(=N3)N(C=N4)CC5=CC=C(C=C5)C6=CC=CC=C6)N[C@@H](CC7=CC=CC=C7)CO [QS11] + CC(=O)Nc1cccc(-n2c(=O)n(C3CC3)c(=O)c3c(Nc4ccc(I)cc4F)n(C)c(=O)c(C)c32)c1 [Trametinib] (partner 0.02 µM)
Outline: as §1

[1] = compound: C[As](C)SC[C@H](NC(=O)CC[C@H](N)C(=O)O)C(=O)NCC(=O)O [Darinaparsin] + N=C(N)NC(=N)NCCc1ccccc1 [Phenformin] (partner 250 µM)
Outline: as §1

| Cell Line | relative viability (QS11 + Pictilisib; first compound 0.08 µM) | relative viability (QS11 + Pictilisib; first compound 0.253 µM) | relative viability (QS11 + Pictilisib; first compound 0.8 µM) | relative viability (QS11 + Pictilisib; first compound 2.53 µM) | relative viability (QS11 + Pictilisib; first compound 8 µM) | relative viability (AZ628 + Alpelisib; first compound 0.08 µM) | relative viability (AZ628 + Alpelisib; first compound 0.253 µM) | relative viability (AZ628 + Alpelisib; first compound 0.8 µM) | relative viability (AZ628 + Alpelisib; first compound 2.53 µM) | relative viability (AZ628 + Alpelisib; first compound 8 µM) | relative viability (QS11 + Trametinib; first compound 0.08 µM) | relative viability (QS11 + Trametinib; first compound 0.253 µM) | relative viability (QS11 + Trametinib; first compound 0.8 µM) | relative viability (QS11 + Trametinib; first compound 2.53 µM) | relative viability (QS11 + Trametinib; first compound 8 µM) | relative viability ([1]; first compound 0.08 µM) | relative viability ([1]; first compound 0.8 µM) | relative viability ([1]; first compound 2.53 µM) | relative viability ([1]; first compound 8 µM) |
| --- | --- | --- | --- | --- | --- | --- | --- | --- | --- | --- | --- | --- | --- | --- | --- | --- | --- | --- | --- |
| NCI-H358 | 0.338 | 0.315 | 0.387 | 0.564 | 0.553 | 0.745 | 0.639 | 0.668 | 0.571 | 0.389 | 0.117 | 0.136 | 0.167 | 0.153 | 0.157 | 0.429 | 0.387 | 0.331 | 0.376 |
| ChaGo-K-1 |  | 0.841 | 0.882 | 1.24 | 1.05 |  |  |  |  |  |  | 0.984 | 0.972 | 0.886 | 0.931 | 0.494 | 0.535 | 0.515 | 0.575 |
| 201T | 0.669 | 0.599 | 0.634 | 0.672 | 0.611 | 1.08 | 1.03 | 1.13 | 1.09 | 1.12 | 0.729 | 0.739 | 0.566 | 0.704 | 0.61 | 0.478 | 0.451 | 0.404 | 0.5 |
| HCC-44 | 0.804 | 0.432 | 0.565 | 0.406 | 0.431 | 0.754 | 0.796 | 0.801 | 0.68 | 0.705 | 1.19 | 0.908 | 0.599 | 1.02 | 1.02 | 0.312 | 0.197 | 0.223 | 0.169 |
| EMC-BAC-2 | 0.535 | 0.486 | 0.569 | 0.604 | 0.442 | 0.704 | 0.645 | 0.681 | 0.608 | 0.706 | 0.814 | 0.954 | 0.573 | 0.885 | 0.804 | 0.559 | 0.505 | 0.514 | 0.559 |
| NCI-H2405 | 0.393 | 0.412 | 0.468 | 0.756 | 0.567 | 0.313 | 0.447 | 0.444 | 0.352 | 0.406 | 0.628 | 0.585 | 0.731 | 0.719 | 0.79 | 0.407 | 0.377 | 0.415 | 0.405 |
| NCI-H2342 |  |  |  |  |  |  |  |  |  |  | 0.775 | 0.769 | 0.838 | 0.88 | 0.743 | 0.596 | 0.627 | 0.567 | 0.628 |
| HOP-62 | 0.822 | 0.688 | 0.738 | 0.514 | 0.435 | 1.02 | 1.11 | 0.947 | 1.24 | 0.451 | 0.373 | 0.393 | 0.38 | 0.357 | 0.42 | 0.964 | 0.759 | 0.494 | 0.8 |
| NCI-H1651 | 0.604 | 0.657 | 0.53 | 0.471 | 0.439 | 1.12 | 1.02 | 0.84 | 0.884 | 0.995 | 0.855 | 0.887 | 0.761 | 0.856 | 0.922 | 0.351 | 0.302 | 0.298 | 0.357 |
| NCI-H2085 | 0.432 | 0.404 | 0.456 | 0.432 | 0.519 | 1.06 | 0.965 | 1.03 | 0.856 | 0.714 | 0.512 | 0.483 | 0.43 | 0.513 | 0.508 | 0.852 | 0.797 | 0.706 | 0.747 |
| NCI-H2023 | 0.255 | 0.224 | 0.291 | 0.309 | 0.283 | 0.653 | 0.558 | 0.617 | 0.688 | 0.324 | 0.616 | 0.57 | 0.661 | 0.68 | 0.597 | 0.529 | 0.417 | 0.368 | 0.501 |
| UMC-11 | 0.748 | 0.844 | 0.899 | 0.901 | 1.12 | 1 | 0.987 | 0.949 | 1.13 | 1.1 | 0.603 | 0.548 | 0.618 | 0.775 | 0.898 | 0.369 | 0.341 | 0.357 | 0.325 |
| NCI-H522 |  |  |  |  |  |  |  |  |  |  | 0.795 | 0.791 | 0.675 | 0.799 | 0.943 | 0.711 | 0.597 | 0.611 | 0.658 |
| NCI-H1648 |  |  |  |  |  |  |  |  |  |  | 0.603 | 0.535 | 0.423 | 0.557 | 0.486 |  |  |  |  |
| NCI-H1650 | 0.671 | 0.458 | 0.584 | 0.584 | 0.524 |  |  |  |  |  | 0.459 | 0.667 | 0.366 | 0.751 | 0.552 | 0.472 | 0.416 | 0.494 | 0.395 |
| NCI-H1563 | 0.718 | 0.703 | 0.68 | 0.586 | 0.617 | 0.982 | 0.874 | 0.858 | 0.967 | 0.893 |  |  |  |  |  | 0.773 | 0.619 | 0.658 | 0.642 |
| NCI-H1703 | 0.281 | 0.242 | 0.264 | 0.253 | 0.344 | 0.216 | 0.2 | 0.215 | 0.213 | 0.181 |  |  |  |  |  |  |  |  |  |
| ABC-1 | 0.657 | 0.6 | 0.651 | 0.764 | 1.06 | 1.16 | 1.05 | 1.17 | 1.1 | 0.906 |  |  |  |  |  | 0.256 | 0.21 | 0.234 | 0.264 |
| Calu-6 | 1.02 | 0.907 | 0.918 | 1.15 | 1 | 0.937 | 0.835 | 0.416 | 0.541 | 0.171 |  |  |  |  |  |  |  |  |  |
| NCI-H1623 |  |  |  |  |  |  |  |  |  |  |  |  |  |  |  | 0.619 | 0.572 | 0.587 | 0.621 |
| A549 | 0.623 | 0.558 | 0.396 | 0.41 | 0.208 | 0.688 | 0.677 | 0.5 | 0.565 | 0.258 |  |  |  |  |  | 0.121 | 0.114 | 0.192 | 0.163 |
